We go through 21 compounds from patent publication US11207431B2, “HDAC6 inhibitors and imaging agents” (The General Hospital Corporation, priority 2017, dated 2021).

Data set [1] is described as follows: Brain penetrance comparison. The conditions noted are these: in vivo.
The test system of data set [2] is Human iPSC-derived neural progenitor cells. In words: Acetylation level assay (Western blot). The conditions noted are these: 6 h at 37° C.; for amount of cellular acetyl-α-Tubulin: other compounds 10 μM; for Histone acetylation (H3K9 and H4K12): 10 μM. The data set is classed as cell-based. For orientation: Immunoblotting shows a protein as a band on a membrane.
The nature of data set [3]: PET/CT imaging in rats. The data set is classed as in vivo, Sprague-Dawley rats. As for the experimental part: 8 male Sprague-Dawley rats (Charles River Laboratories) were used for PET imaging. […] For intravenous administration, a catheter with an extension line was placed in a lateral tail vein. Each animal received a bolus injection of either vehicle (1:1:8 DMSO/Tween80/saline) or blocking agent in solution (1 mg/kg, 1 mg/mL in 1:1:8 DMSO/Tween80/saline) immediately prior to injection of the radiotracer.
After injection of a radiotracer bolus ([…] Example 2) a 90 min dynamic PET scan was acquired in pairs for all animals. PET scans were performed on a GammaMedica Triumph PET/CT/SPECT scanner, corrected for attenuation with a μ-map derived from the corresponding CT image, which was acquired immediately following the PET scan. The dynamic PET data was binned into 38 timeframes (8×15 s, 8×1 min, 10×2 min, 12×5) and reconstructed individually via an iterative MLEM (maximum likelihood expectation maximization) algorithm in 16 iterations.
PET images were to the CT image acquired from the same animal using AMIDE Data sets were cropped and all further image analysis was conducted using PMOD 3.3 (PMOD Technologies, Zurich, Switzerland). For maximum consistency, the data were coregistered to the Schiffer Px Rat rat brain template and data was derived from a whole brain VOI (volumes of interest) for time activity curves.

In data set [4] the target is HDAC6 (Homo sapiens (Human), UniProt Q9UBN7). In words: IC50 assay by Nanosyn (Caliper microfluidics mobility shift detection). The data set is classed as biochemical. The conditions noted are these: Nanosyn (Table 1A).
Data set [5] concerns the target HDAC6 (Rattus norvegicus (Rat), UniProt A0A8I6GM68). In words: Autoradiography competition with radiolabeled Example 2 on rat brain slices. The class given is binding, Sprague-Dawley rat. The conditions noted are these: Tubastatin A at 100 μM. On the procedure:
Sagittal slices of Sprague-Dawley rat brains were sectioned (10 μm) with a cryostat (Thermo Scientific HM550) and mounted onto ColorFrost Plus microscope slides (Fisher Scientific 12-550-18) and stored at −20° C. […] After 15 min, 50 μCi of the radiolabeled compound of Example 2 was added to each bath. After 15 minutes, all slides were washed by dipping 10× into buffer and subsequently submerged in 50 mL baths of buffer at 4° C. for 5 minutes. The slides were dried at 35° C. in a vacuum chamber. A phosphorus screen (Perkin Elmer 7001723) was exposed with the slides for 45 minutes and subsequently imaged with a Cyclone Plus Storage Phosphor (Perkin Elmer) detector. ImageJ was used to apply a Gaussian blur (3.0 radius) smoothing and a lookup table (Royal) with equivalent thresholds for brightness was applied. Raw intensity values from gray and white matter were quantified with the ImageJ measurement tool.

For orientation: IC50 means the concentration that gives 50% inhibition.

HDAC6 (Homo sapiens (Human), UniProt Q9UBN7), sequence (Q9UBN7 whole entry): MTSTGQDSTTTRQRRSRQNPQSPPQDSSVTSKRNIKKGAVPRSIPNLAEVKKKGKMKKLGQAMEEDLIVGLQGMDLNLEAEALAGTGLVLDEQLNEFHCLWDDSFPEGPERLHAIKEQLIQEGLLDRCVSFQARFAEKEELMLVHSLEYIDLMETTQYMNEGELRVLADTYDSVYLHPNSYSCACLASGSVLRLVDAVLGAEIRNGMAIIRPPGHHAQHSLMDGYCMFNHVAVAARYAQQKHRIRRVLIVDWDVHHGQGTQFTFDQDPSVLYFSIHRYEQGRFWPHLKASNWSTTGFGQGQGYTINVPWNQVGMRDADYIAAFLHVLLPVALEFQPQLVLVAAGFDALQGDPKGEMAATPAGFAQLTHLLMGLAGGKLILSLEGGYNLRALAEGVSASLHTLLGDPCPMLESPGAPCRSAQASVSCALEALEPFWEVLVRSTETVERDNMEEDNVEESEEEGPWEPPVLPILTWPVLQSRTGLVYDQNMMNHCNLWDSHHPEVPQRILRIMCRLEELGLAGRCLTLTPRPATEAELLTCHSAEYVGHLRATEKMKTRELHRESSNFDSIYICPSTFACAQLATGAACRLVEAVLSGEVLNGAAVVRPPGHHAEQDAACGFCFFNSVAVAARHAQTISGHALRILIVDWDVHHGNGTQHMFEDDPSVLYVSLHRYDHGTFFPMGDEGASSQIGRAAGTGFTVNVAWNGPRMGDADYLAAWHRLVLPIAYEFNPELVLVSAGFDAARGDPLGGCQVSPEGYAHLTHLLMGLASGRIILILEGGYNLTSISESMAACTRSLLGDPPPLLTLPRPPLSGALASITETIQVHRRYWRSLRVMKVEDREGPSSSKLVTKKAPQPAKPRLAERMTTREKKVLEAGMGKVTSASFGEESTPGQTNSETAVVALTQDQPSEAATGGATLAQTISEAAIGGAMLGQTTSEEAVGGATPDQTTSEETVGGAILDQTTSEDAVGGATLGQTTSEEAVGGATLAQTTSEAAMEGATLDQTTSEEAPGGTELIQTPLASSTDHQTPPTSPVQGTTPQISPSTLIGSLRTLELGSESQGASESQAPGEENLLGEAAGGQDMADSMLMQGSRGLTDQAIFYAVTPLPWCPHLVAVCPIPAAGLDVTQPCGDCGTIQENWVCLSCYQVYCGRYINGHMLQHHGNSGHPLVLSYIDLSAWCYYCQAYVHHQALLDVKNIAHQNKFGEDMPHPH
HDAC6 (Rattus norvegicus (Rat), UniProt A0A8I6GM68), sequence (A0A8I6GM68 whole entry): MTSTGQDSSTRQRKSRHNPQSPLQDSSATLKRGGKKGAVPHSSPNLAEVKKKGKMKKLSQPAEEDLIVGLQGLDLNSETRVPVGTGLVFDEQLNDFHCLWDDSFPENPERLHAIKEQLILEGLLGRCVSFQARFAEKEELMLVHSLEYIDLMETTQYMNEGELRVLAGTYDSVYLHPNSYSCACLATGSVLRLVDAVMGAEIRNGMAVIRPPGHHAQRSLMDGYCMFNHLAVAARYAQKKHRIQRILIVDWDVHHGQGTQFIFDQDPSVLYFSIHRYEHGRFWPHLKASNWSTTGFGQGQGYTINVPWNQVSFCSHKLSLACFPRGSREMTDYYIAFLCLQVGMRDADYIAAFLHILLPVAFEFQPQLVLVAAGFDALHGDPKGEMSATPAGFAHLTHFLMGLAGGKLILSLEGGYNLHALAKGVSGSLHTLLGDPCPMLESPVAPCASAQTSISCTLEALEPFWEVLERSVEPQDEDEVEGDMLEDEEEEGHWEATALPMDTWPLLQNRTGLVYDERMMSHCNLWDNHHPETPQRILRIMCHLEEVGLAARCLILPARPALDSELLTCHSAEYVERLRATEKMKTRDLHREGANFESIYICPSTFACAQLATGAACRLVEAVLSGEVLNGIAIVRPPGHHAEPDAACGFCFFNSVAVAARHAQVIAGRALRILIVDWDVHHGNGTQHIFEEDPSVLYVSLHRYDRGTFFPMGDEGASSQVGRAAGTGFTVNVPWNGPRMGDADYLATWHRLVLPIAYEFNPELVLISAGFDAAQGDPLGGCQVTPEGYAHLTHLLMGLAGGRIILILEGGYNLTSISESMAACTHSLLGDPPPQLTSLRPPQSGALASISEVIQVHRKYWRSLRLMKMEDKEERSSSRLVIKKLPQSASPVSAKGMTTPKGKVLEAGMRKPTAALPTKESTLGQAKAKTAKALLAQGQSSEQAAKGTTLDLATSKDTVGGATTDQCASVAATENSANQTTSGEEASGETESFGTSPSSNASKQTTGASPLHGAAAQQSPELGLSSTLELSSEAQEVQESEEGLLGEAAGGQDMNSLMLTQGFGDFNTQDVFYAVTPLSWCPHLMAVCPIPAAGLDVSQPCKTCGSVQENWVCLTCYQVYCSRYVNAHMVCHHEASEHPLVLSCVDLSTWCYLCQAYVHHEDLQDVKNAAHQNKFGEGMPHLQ

`O=C(CCCCCCNC(=O)c1cnc(N(c2ccccc2)c2ccccc2)nc1)NO` [ACY-1215, ricolinostat]: in data set [1], the “Brain-penetrant?” value is on record as “−”. Also, in data set [2] (ACY1215 5 μM), the “acetylation of H4K12” value is “significantly increased” and the “amount of cellular acetyl-α-Tubulin” value is listed as “increased”.

For the compound `CC(=O)Nc1ccc(C(=O)Nc2ccccc2N)cc1` [CI-994, tacedinaline], the “Histone acetylation (H3K9 and H4K12)” value in data set [2] is “significantly increased”. Further, the “amount of cellular acetyl-α-Tubulin” value in data set [2] (ACY1215 5 μM) is “did not increase”.

With `CN(Cc1ccc(C(=O)NO)cc1[18F])CC12CC3CC(CC(C3)C1)C2` [Example 2, 4-((((Adamantan-1-yl)methyl)(methyl)amino)methyl)-3-[^18F]fluoro-N-hydroxybenzamide], in data set [3] (radiotracer, PET), the “brain uptake and retention” value is listed as “excellent”. The “off-rate in preclinical PET” value in data set [3] (rat, in vivo) is given as “slow”.

Consider `O=C(NO)c1ccc(CNCC23CC4CC(CC(C4)C2)C3)cc1F` [Example 8, 4-((((Adamantan-1-yl)methyl)amino)methyl)-2-fluoro-N-hydroxybenzamide], for which the IC50 in data set [4] worked out at 0.089 µM.

Turning to `O=C(NO)c1cc(F)c(CNCC23CC4CC(CC(C4)C2)C3)c(F)c1` [Example 9, 4-((((Adamantan-1-yl)methyl)amino)methyl)-3,5-difluoro-N-hydroxybenzamide], the IC50 in data set [4] worked out at 0.0136 µM.

With `O=C(NO)c1ccc(CNCC23CC4CC(CC(C4)C2)C3)c(C(F)(F)F)c1` [Example 10, 4-((((adamantan-1-yl)methyl)amino)methyl)-3-trifluoromethyl-N-hydroxybenzamide], the IC50 in data set [4] was found to be 1.02 µM.

Consider `Cc1cc(C(=O)NO)ccc1CNCC12CC3CC(CC(C3)C1)C2` [Example 11, 4-((((adamantan-1-yl)methyl)amino)methyl)-3-methyl-N-hydroxybenzamide], for which the IC50 in data set [4] is 0.574 µM.

`CN(Cc1ccc(C(=O)NO)cc1)CC12CC3CC(CC(C3)C1)C2` [Example 12, 4-(((((3r,5r,7r)-adamantan-1-yl)methyl)(methyl)amino)methyl)-N-hydroxybenzamide]: in data set [4], the IC50 was determined as 0.081 µM.

Take `O=C(NO)c1ccc(CNCC23CC4CC(CC(C4)C2)C3)nc1` [Example 13, 6-((((adamantan-1-yl)methyl)amino)methyl)-N-hydroxynicotinamide]: the IC50 in data set [4] came out at 0.0267 µM.

As to `O=C(NO)c1ccc(CNCC23CC4CC(CC(C4)C2)C3)c(Cl)c1` [Example 14, 4-((((adamantan-1-yl)methyl)amino)methyl)-3-chloro-N-hydroxybenzamide], in data set [4], the IC50 came to 0.0748 µM.

For `O=C(NO)c1ccc(CNCC23CC4CC(CC(C4)C2)C3)c(Br)c1` [Example 15, 4-((((adamantan-1-yl)methyl)amino)methyl)-3-bromo-N-hydroxybenzamide], the IC50 in data set [4] is 0.0599 µM.

For `O=C(NO)c1ccc(CNCC23CC4CC(CC(C4)C2)C3)c(F)c1` [Example 16, 4-(((((3r,5r,7r)-adamantan-1-yl)methyl)amino)methyl)-3-fluoro-N-hydroxybenzamide], the IC50 in data set [4] was 0.012 µM.

For the compound `O=C(NO)c1ccc(CNCC23CC4CC(CC(C4)C2)C3)cc1` [Example 17, 4-(((((3r,5r,7r)-adamantan-1-yl)methyl)amino)methyl)-N-hydroxybenzamide], in data set [4], the concentration for half-maximal inhibition (IC50) was 0.035 µM.

Turning to `O=C(NO)c1ccc(CNC23CC4CC(CC(C4)C2)C3)cc1` [Example 18, 4-((((3s,5s,7s)-adamantan-1-yl)amino)methyl)-N-hydroxybenzamide], the IC50 in data set [4] worked out at 1.38 µM.

As to `CC(CC12CC3CC(CC(C3)C1)C2)NCc1ccc(C(=O)NO)cc1` (stereo not shown) [Example 19, 4-(((1-(adamantan-1-yl)propan-2-yl)amino)methyl)-N-hydroxybenzamide], the concentration for half-maximal inhibition (IC50) in data set [4] came to 0.323 µM.

In the case of `CCC(NCc1ccc(C(=O)NO)cc1)C12CC3CC(CC(C3)C1)C2` (stereo not shown) [Example 21, 4-(((1-((3r,5r,7r)-adamantan-1-yl)propyl)amino)methyl)-N-hydroxybenzamide], the IC50 in data set [4] amounted to 0.213 µM.

On to `CCC(N(C)Cc1ccc(C(=O)NO)cc1)C12CC3CC(CC(C3)C1)C2` (stereo not shown) [Example 22, 4-(((1-((3r,5r,7r)-adamantan-1-yl)propyl)(methyl)amino)methyl)-N-hydroxybenzamide], for which the IC50 in data set [4] was found to be 0.121 µM.

Turning to `CC1(C)C2CCC(CNCc3ccc(C(=O)NO)cc3)C1C2` (stereo not shown) [Example 23, 4-((((6,6-dimethylbicyclo[3.1.1]heptan-2-yl)methyl)amino)methyl)-N-hydroxybenzamide], the IC50 in data set [4] stood at 0.149 µM.

Regarding `CCCCCN(Cc1ccc(C(=O)NO)cc1)CC1CCC2CC1C2(C)C` (stereo not shown) [Example 24, 4-((((6,6-dimethylbicyclo[3.1.1]heptan-2-yl)methyl)(pentyl)amino)methyl)-N-hydroxybenzamide], the IC50 in data set [4] worked out at 1.19 µM.

Consider `O=C(NO)c1ccc(CNCC2CCCCC2)cc1` [Example 25, 4-(((cyclohexylmethyl)amino)methyl)-N-hydroxybenzamide], for which, in data set [4], the half-inhibitory concentration (IC50) worked out at 0.084 µM.

With `CN1CCc2c(c3ccccc3n2Cc2ccc(C(=O)NO)cc2)C1` [Tubastatin A], the “amount of bound radioactivity (radiolabeled Example 2) on rat brain slices” value in data set [5] is “reduce the amount of bound radioactivity to the same background as 10 μM Example 1”. In addition, in data set [1], the “Brain-penetrant?” value is listed as “+/−”. In addition, the “Histone acetylation (H3K9 and H4K12)” value in data set [2] is listed as “remained unaltered”. Also, the “amount of cellular acetyl-α-Tubulin” value in data set [2] (ACY1215 5 μM) was “increased”.
